Source: US20240034722A1, “PRETARGETING IMAGING AGENTS” (Eli Lilly and Company, priority 2020, published 2024)
Values joined by “and” are separate entries in the source; they are usually repeats but may differ in a detail not shown here. Equal entries are not always repeated. “Also recorded” adds a separate entry of the source.

How the values were obtained:
[1] = Stability of the tetrazine moiety in ascorbate formulation; format: physicochemical
[2] = Dynamic micro PET-CT imaging, tracer uptake in brain, muscle and bone; format: in vivo, CD-1 mice; conditions: for Bone uptake throughout the scan period (defluorination) / Uptake throughout the periphery of the body (liver, kidneys, heart) / Brain uptake after steady clearance of tracer / Crossing of the blood-brain-barrier / Peak brain uptake / Time of peak brain uptake post injection / Clearance from the brain: CD-1 male mice; for Bone uptake throughout the scan period (defluorination): 60-min scan; for Uptake throughout the periphery of the body (liver, kidneys, heart): PET; for Brain uptake after steady clearance of tracer: at 59.5 min post injection; for Crossing of the blood-brain-barrier / Peak brain uptake / Time of peak brain uptake post injection: dynamic PET; for Peak brain uptake / Time of peak brain uptake post injection: i.v.; for Bone Mean % ID/g / Brain Mean % ID/g / Muscle Mean % ID/g: male CD-1 mice, iv; for Clearance from the brain: by 60 minutes post injection, relative to muscle
Experimental: (§1) A Siemens Inveon® Multimodality Scanner (Siemens, Germany) is used for micro PET-CT imaging. Male CD-1 (6-week-old, ˜30 g) mice are anesthetized with 3% isoflurane/97% oxygen and placed on the bed of the scanner. The mice are administered [^18F]N-(4-(1,2,4,5-tetrazin-3-yl)benzyl)-2-fluoronicotinamide via a bolus intravenous tail vein injection (˜350 ρCi in a total volume of 150 μL saline). A total of four dynamic PET scans are conducted, followed by a short high-resolution CT scan for anatomical registration. PET images are generated for each minute of the acquisition time. Uptake of the tracer in the brain, muscle, and bone are determined by visually drawing regions of interest (ROIs) based on the fused PET/CT images and the corresponding activity values are determined using the Inveon® Research Workplace software. All values are represented as % injected dose per gram (% ID/g).
as §1, with “g) mice were anesthetized with” for “g) mice are anesthetized with”, “are administered [^18F]N-(4-(1,2,4,5-tetrazin-3-yl)benzyl)-6-fluoropicolinamide via a” for “are administered [^18F]N-(4-(1,2,4,5-tetrazin-3-yl)benzyl)-2-fluoronicotinamide via a”, “vein injection (˜300 ρCi in” for “vein injection (˜350 ρCi in”
as §1, with “PET/CT” for “PET-CT”, “30-40” for “˜30”, “[^18F]N-(4-(1,2,4,5-tetrazin-3-yl)benzyl)-6-fluoronicotinamide” for “[^18F]N-(4-(1,2,4,5-tetrazin-3-yl)benzyl)-2-fluoronicotinamide”, “(˜300” for “(˜350”, “two” for “four”

[3] = listed as [^18F]N-(4-(1,2,4,5-tetrazin-3-yl)benzyl)-6-fluoropicolinamide
[4] = listed as [^18F]N-(4-(1,2,4,5-tetrazin-3-yl)benzyl)-2-fluoronicotinamide

O=C(NCc1ccc(-c2nncnn2)cc1)c1cccnc1F [Example 1, N-(4-(1,2,4,5-tetrazin-3-yl)benzyl)-2-fluoronicotinamide]
Reduction of the tetrazine moiety by ascorbate formulation [1]: readily reduced

O=C(NCc1ccc(-c2nncnn2)cc1)c1cccc(F)n1 [Example 3, N-(4-(1,2,4,5-tetrazin-3-yl)benzyl)-6-fluoropicolinamide]
Reduction of the tetrazine moiety by ascorbate formulation [1]: readily reduced

O=C(NCc1ccc(-c2nncnn2)cc1)c1ccc([18F])nc1 [Comparative Example 6, [^18]FN-(4-(1,2,4,5-tetrazin-3-yl)benzyl)-6-fluoronicotinamide]
Bone uptake throughout the scan period (defluorination) [2]: remained low
Uptake throughout the periphery of the body (liver, kidneys, heart) [2]: readily observed
Brain uptake after steady clearance of tracer [2]: 1.1 % ID/g
Crossing of the blood-brain-barrier [2]: crosses the blood-brain-barrier
Peak brain uptake [2]: 2.6 % ID/g
Time of peak brain uptake post injection [2]: 2.5 min
Bone Mean % ID/g ([2]; Time 0.5 min): 0.00 % ID/g
Brain Mean % ID/g ([2]; Time 0.5 min): 0.00 % ID/g
Muscle Mean % ID/g ([2]; Time 0.5 min): 0.00 % ID/g
Bone Mean % ID/g ([2]; Time 1.5 min): 0.09 % ID/g
Brain Mean % ID/g ([2]; Time 1.5 min): 0.52 % ID/g
Muscle Mean % ID/g ([2]; Time 1.5 min): 0.07 % ID/g
Bone Mean % ID/g ([2]; Time 2.5 min): 0.83 % ID/g
Brain Mean % ID/g ([2]; Time 2.5 min): 2.57 % ID/g
Muscle Mean % ID/g ([2]; Time 2.5 min): 0.56 % ID/g
Bone Mean % ID/g ([2]; Time 3.5 min): 0.95 % ID/g
Brain Mean % ID/g ([2]; Time 3.5 min): 2.45 % ID/g
Muscle Mean % ID/g ([2]; Time 3.5 min): 0.67 % ID/g
Bone Mean % ID/g ([2]; Time 4.5 min): 0.85 % ID/g
Brain Mean % ID/g ([2]; Time 4.5 min): 2.29 % ID/g
Muscle Mean % ID/g ([2]; Time 4.5 min): 0.73 % ID/g
Bone Mean % ID/g ([2]; Time 5.5 min): 0.86 % ID/g
Brain Mean % ID/g ([2]; Time 5.5 min): 2.20 % ID/g
Muscle Mean % ID/g ([2]; Time 5.5 min): 0.72 % ID/g
Bone Mean % ID/g ([2]; Time 6.5 min): 0.90 % ID/g
Brain Mean % ID/g ([2]; Time 6.5 min): 2.23 % ID/g
Muscle Mean % ID/g ([2]; Time 6.5 min): 0.80 % ID/g
Bone Mean % ID/g ([2]; Time 7.5 min): 0.90 % ID/g
Brain Mean % ID/g ([2]; Time 7.5 min): 2.15 % ID/g
Muscle Mean % ID/g ([2]; Time 7.5 min): 0.84 % ID/g
Bone Mean % ID/g ([2]; Time 8.5 min): 0.90 % ID/g
Brain Mean % ID/g ([2]; Time 8.5 min): 2.10 % ID/g
Muscle Mean % ID/g ([2]; Time 8.5 min): 0.84 % ID/g
Bone Mean % ID/g ([2]; Time 9.5 min): 0.81 % ID/g
Brain Mean % ID/g ([2]; Time 9.5 min): 2.00 % ID/g
Muscle Mean % ID/g ([2]; Time 9.5 min): 0.78 % ID/g
Bone Mean % ID/g ([2]; Time 10.5 min): 0.90 % ID/g
Brain Mean % ID/g ([2]; Time 10.5 min): 1.95 % ID/g
Muscle Mean % ID/g ([2]; Time 10.5 min): 0.79 % ID/g
Bone Mean % ID/g ([2]; Time 11.5 min): 0.92 % ID/g
Brain Mean % ID/g ([2]; Time 11.5 min): 1.89 % ID/g
Muscle Mean % ID/g ([2]; Time 11.5 min): 0.84 % ID/g
Bone Mean % ID/g ([2]; Time 12.5 min): 0.94 % ID/g
Brain Mean % ID/g ([2]; Time 12.5 min): 1.86 % ID/g
Muscle Mean % ID/g ([2]; Time 12.5 min): 0.84 % ID/g
Bone Mean % ID/g ([2]; Time 13.5 min): 0.97 % ID/g
Brain Mean % ID/g ([2]; Time 13.5 min): 1.83 % ID/g
Muscle Mean % ID/g ([2]; Time 13.5 min): 0.88 % ID/g
Bone Mean % ID/g ([2]; Time 14.5 min): 0.98 % ID/g
Brain Mean % ID/g ([2]; Time 14.5 min): 1.78 % ID/g
Muscle Mean % ID/g ([2]; Time 14.5 min): 0.88 % ID/g
Bone Mean % ID/g ([2]; Time 15.5 min): 0.98 % ID/g
Brain Mean % ID/g ([2]; Time 15.5 min): 1.76 % ID/g
Muscle Mean % ID/g ([2]; Time 15.5 min): 0.89 % ID/g
Bone Mean % ID/g ([2]; Time 16.5 min): 0.83 % ID/g
Brain Mean % ID/g ([2]; Time 16.5 min): 1.72 % ID/g
Muscle Mean % ID/g ([2]; Time 16.5 min): 0.93 % ID/g
Bone Mean % ID/g ([2]; Time 17.5 min): 1.00 % ID/g
Brain Mean % ID/g ([2]; Time 17.5 min): 1.69 % ID/g
Muscle Mean % ID/g ([2]; Time 17.5 min): 0.91 % ID/g
Bone Mean % ID/g ([2]; Time 18.5 min): 0.97 % ID/g
Brain Mean % ID/g ([2]; Time 18.5 min): 1.65 % ID/g
Muscle Mean % ID/g ([2]; Time 18.5 min): 0.89 % ID/g
Bone Mean % ID/g ([2]; Time 19.5 min): 0.93 % ID/g
Brain Mean % ID/g ([2]; Time 19.5 min): 1.63 % ID/g
Muscle Mean % ID/g ([2]; Time 19.5 min): 0.90 % ID/g
Bone Mean % ID/g ([2]; Time 20.5 min): 1.01 % ID/g
Brain Mean % ID/g ([2]; Time 20.5 min): 1.61 % ID/g
Muscle Mean % ID/g ([2]; Time 20.5 min): 0.95 % ID/g
Bone Mean % ID/g ([2]; Time 21.5 min): 0.91 % ID/g
Brain Mean % ID/g ([2]; Time 21.5 min): 1.58 % ID/g
Muscle Mean % ID/g ([2]; Time 21.5 min): 0.98 % ID/g
Bone Mean % ID/g ([2]; Time 22.5 min): 1.02 % ID/g
Brain Mean % ID/g ([2]; Time 22.5 min): 1.56 % ID/g
Muscle Mean % ID/g ([2]; Time 22.5 min): 0.95 % ID/g
Bone Mean % ID/g ([2]; Time 23.5 min): 1.04 % ID/g
Brain Mean % ID/g ([2]; Time 23.5 min): 1.55 % ID/g
Muscle Mean % ID/g ([2]; Time 23.5 min): 1.00 % ID/g
Bone Mean % ID/g ([2]; Time 24.5 min): 1.11 % ID/g
Brain Mean % ID/g ([2]; Time 24.5 min): 1.51 % ID/g
Muscle Mean % ID/g ([2]; Time 24.5 min): 0.98 % ID/g
Bone Mean % ID/g ([2]; Time 25.5 min): 0.93 % ID/g
Brain Mean % ID/g ([2]; Time 25.5 min): 1.49 % ID/g
Muscle Mean % ID/g ([2]; Time 25.5 min): 0.99 % ID/g
Bone Mean % ID/g ([2]; Time 26.5 min): 0.86 % ID/g
Brain Mean % ID/g ([2]; Time 26.5 min): 1.46 % ID/g
Muscle Mean % ID/g ([2]; Time 26.5 min): 0.95 % ID/g
Bone Mean % ID/g ([2]; Time 27.5 min): 0.94 % ID/g
Brain Mean % ID/g ([2]; Time 27.5 min): 1.45 % ID/g
Muscle Mean % ID/g ([2]; Time 27.5 min): 0.94 % ID/g
Bone Mean % ID/g ([2]; Time 28.5 min): 1.00 % ID/g
Brain Mean % ID/g ([2]; Time 28.5 min): 1.42 % ID/g
Muscle Mean % ID/g ([2]; Time 28.5 min): 1.00 % ID/g
Bone Mean % ID/g ([2]; Time 29.5 min): 1.05 % ID/g
Brain Mean % ID/g ([2]; Time 29.5 min): 1.40 % ID/g
Muscle Mean % ID/g ([2]; Time 29.5 min): 0.97 % ID/g
Bone Mean % ID/g ([2]; Time 30.5 min): 0.95 % ID/g
Brain Mean % ID/g ([2]; Time 30.5 min): 1.38 % ID/g
Muscle Mean % ID/g ([2]; Time 30.5 min): 0.99 % ID/g
Bone Mean % ID/g ([2]; Time 31.5 min): 1.04 % ID/g
Brain Mean % ID/g ([2]; Time 31.5 min): 1.38 % ID/g
Muscle Mean % ID/g ([2]; Time 31.5 min): 0.95 % ID/g
Bone Mean % ID/g ([2]; Time 32.5 min): 1.04 % ID/g
Brain Mean % ID/g ([2]; Time 32.5 min): 1.36 % ID/g
Muscle Mean % ID/g ([2]; Time 32.5 min): 0.97 % ID/g

O=C(NCc1ccc(-c2nncnn2)cc1)c1cccc([18F])n1 [Example 4, [^18F]N-(4-(1,2,4,5-tetrazin-3-yl)benzyl)-6-fluoropicolinamide]
Bone uptake throughout the scan period (defluorination) [2]: remained low
Uptake throughout the periphery of the body (liver, kidneys, heart) [2]: observed
Brain uptake after steady clearance of tracer [2]: 1.1 % ID/g
Clearance from the brain [2]: baseline levels defined by uptake in the muscle
Clearance from the brain [2, 3]: near background levels (muscle)
Crossing of the blood-brain-barrier [2]: readily cross the blood-brain-barrier
Peak brain uptake [2]: 4.3±0.3 % ID/g
Time of peak brain uptake post injection [2]: approximately 2 min
Peak brain uptake [2, 3]: 4.3±0.3 % ID/g and 4.3 % ID/g
Time of peak brain uptake post injection [2, 3]: 2.5 min
Crossing of the blood-brain-barrier [2, 3]: readily cross the blood-brain-barrier; also recorded: readily crosses the blood-brain-barrier

O=C(NCc1ccc(-c2nncnn2)cc1)c1cccnc1[18F] [Example 2, [^18F]N-(4-(1,2,4,5-tetrazin-3-yl)benzyl)-2-fluoronicotinamide]
Bone uptake throughout the scan period (defluorination) [2]: remained low
Uptake throughout the periphery of the body (liver, kidneys, heart) [2]: observed
Brain uptake after steady clearance of tracer [2]: 1.2 % ID/g
Clearance from the brain [2]: baseline levels defined by uptake in the muscle
Clearance from the brain [2, 4]: near background levels (muscle)
Crossing of the blood-brain-barrier [2]: readily cross the blood-brain-barrier
Peak brain uptake [2]: 3.3±0.4 % ID/g
Time of peak brain uptake post injection [2]: approximately 2 min
Peak brain uptake [2, 4]: 3.3±0.4 % ID/g and 3.3 % ID/g
Time of peak brain uptake post injection [2, 4]: 4.5 min
Crossing of the blood-brain-barrier [2, 4]: readily cross the blood-brain-barrier; also recorded: readily crosses the blood-brain-barrier
Reduction of the tetrazine moiety by ascorbate formulation [1]: readily reduced
